This is an account of results in patent publication US4758574A, “2-phenylimidazio (4,5-c) pyridines” (Eli Lilly and Company, priority 1986, dated 1988).

The structures appear in SMILES notation. Counter-ions that a name gives are not always drawn.

The test has as its system Cat Papillary Muscles. In words: Positive Inotropic Activity in Isolated Cat Papillary Muscles. The note with it: Felis catus, control = 100 percent, read-out: Contractility of Papillary Muscle (peak response); for activity at 100 µM: Drug Concentration 10^-4 M; for activity at 10 µM: Drug Concentration 10^-5 M. The class given is cell-based. Here is the method: Positive Inotropic Activity in Isolated Cat Papillary Muscles […] A platinum hook secured one end of the muscle to an electrode mounted in the bottom of the bath, and a silk thread attached the tendon to a Statham isometric transducer. The baths contained Krebs-Henseleit solution (36° C., bubbled with 95 percent oxygen--5 percent carbon dioxide) of the following millimolar composition: NaCl, 118; KCl, 4.5; CaCl2, 2.5; KH2 PO4, 1.1; MgSO4, 1.2; NaHCO3, 25; and glucose, 11. A base-line tension of 1.5 g. was applied to each muscle. Square-wave pulses (5.0 msec. in duration, three times threshold voltage) delivered through the hook electrode and a second electrode positioned near the top of the muscle evoked 12 contractions/minute, which were recorded on a Grass polygraph. After the muscles had equilibrated for 60 minutes, the recorder gain was adjusted so that the pen deflected 10 mm. The drug was introduced in a solution of normal saline in an amount to bring the final concentration of the drug to 10^-5 or 10^-4 molar. Increases in contractility were tabulated as millimeters of pen deflection in excess of the baseline value. In each experiment the maximum contractility was measured. Test results are summarized in Table I and are expressed as percent of control (control=100 percent). Values are the average of results from 2 to 8 muscles.

For the compound `COc1c(C)cc(-c2nc3cnccc3[nH]2)cc1C` [Example 21, 2-(3,5-dimethyl-4-methoxyphenyl)imidazo[4,5-c]pyridine hydrochloride], the activity at 100 µM amounted to 215% and the activity at 10 µM is 127%.
With `COc1cccc(OC)c1-c1nc2cnccc2[nH]1` [Example 33, 2-(2,6-dimethoxyphenyl)imidazo[4,5-c]pyridine hydrochloride], the activity at 100 µM is 184% and the activity at 10 µM was found to be 88%.
Consider `CCCCOc1ccc(-c2nc3cnccc3[nH]2)cc1` [Example 19, 2-(4-n-butoxyphenyl)imidazo[4,5-c]pyridine hydrochloride], for which the activity at 100 µM stood at 288% and the activity at 10 µM came out at 114%.
Take `CN(C)c1ccc(-c2nc3cnccc3[nH]2)cc1` [Example 17, 2-(4-dimethylaminophenyl)imidazo[4,5-c]pyridine hydrochloride]: the activity at 100 µM was 175% and the activity at 10 µM is 95%.
As to `Cc1ccc(-c2nc3cnccc3[nH]2)cc1` [Example 25, 2-(4-methylphenyl)imidazo[4,5-c]pyridine hydrochloride], the activity at 100 µM stood at 130% and the activity at 10 µM came to 95%.
As for `Clc1cc(Cl)cc(-c2nc3cnccc3[nH]2)c1` [Example 3, 2-(3,5-Dichlorophenyl)imidazo[4,5-c]pyridine hydrochloride], the activity at 100 µM turned out to be 146% and the activity at 10 µM was 117%.
The matching figures for `COc1ccc(-c2nc3cnccc3[nH]2)c(OCC[S+]([O-])c2ccccc2)c1` (stereo not drawn) [Example 53, 2-[2-(β-phenylsulfinylethoxy)-4-methoxyphenyl]imidazo[4,5-c]pyridine]: 96% and 107%.
Taken in the same sequence, the figures for `COc1ccccc1-c1nc2cnccc2[nH]1` [Example 18, 2-(2-methoxyphenyl)imidazo[4,5-c]pyridine hydrochloride] were 163% and 115%.
On to `Fc1ccccc1-c1nc2cnccc2[nH]1` [Example 6, 2-(2-Fluorophenyl)imidazo[4,5-c]pyridine hydrochloride], for which the activity at 100 µM was 152% and the activity at 10 µM amounted to 108%.
Regarding `COCCOc1cc(OC)ccc1-c1nc2cnccc2[nH]1` [Example 37, 2-[2-(β-methoxyethoxy)-4-methoxyphenyl]imidazo[4,5-c]pyridine], the activity at 100 µM is 116% and the activity at 10 µM was determined as 109%.
The matching figures for `CCCCCOc1cc(OC)ccc1-c1nc2cnccc2[nH]1` [Example 35, 2-(2-n-pentoxy-4-methoxyphenyl)imidazo[4,5-c]pyridine hydrochloride]: 81% and 105%.
Regarding `Clc1cccc(-c2nc3cnccc3[nH]2)c1` [Example 48, 2-(3-chlorophenyl)imidazo[4,5-c]pyridine], the activity at 100 µM worked out at 176% and the activity at 10 µM worked out at 107%.
Turning to `CCOc1cc(SC)ccc1-c1nc2cnccc2[nH]1` [Example 42, 2-(2-ethoxy-4-methylmercaptophenyl)imidazo[4,5-c]pyridine], the activity at 100 µM was determined as 149% and the activity at 10 µM turned out to be 122%.
As to `Cc1ccc(-c2nc3cnccc3[nH]2)cc1C` [Example 46, 2-(3,4-dimethylphenyl)imidazo[4,5-c]pyridine hydrochloride], the activity at 100 µM is 225% and the activity at 10 µM turned out to be 133%.
Consider `Fc1ccc(-c2nc3cnccc3[nH]2)cc1` [Example 5, 2-(4-Fluorophenyl)imidazo[4,5-c]pyridine hydrochloride], for which the activity at 100 µM was found to be 163% and the activity at 10 µM was 105%.
For the compound `Fc1cccc(-c2nc3cnccc3[nH]2)c1` [Example 1, 2-(3-Fluorophenyl)imidazo[4,5-c]pyridine hydrochloride], the activity at 100 µM was found to be 157% and the activity at 10 µM came out at 112%.
The matching figures for `COc1cccc(-c2nc3cnccc3[nH]2)c1OC` [Example 11, 2-(2,3-dimethoxyphenyl)imidazo[4,5-c]pyridine hydrochloride]: 90% and 102%.
Consider `N#Cc1ccc(-c2nc3cnccc3[nH]2)cc1` [Example 14, 2-(4-cyanophenyl)imidazo[4,5-c]pyridine hydrochloride], for which the activity at 100 µM was determined as 164% and the activity at 10 µM is 112%.
Taken in the same sequence, the figures for `COCCCOc1cc(OC)ccc1-c1nc2cnccc2[nH]1` [Example 36, 2-[2-(γ-methoxypropoxy)-4-methoxyphenyl]imidazo[4,5-c]pyridine] were 147% and 100%.
Regarding `COc1ccc(OC)c(-c2nc3cnccc3[nH]2)c1` [Example 31, 2-(2,5-dimethoxyphenyl)imidazo[4,5-c]pyridine hydrochloride], the activity at 100 µM worked out at 194% and the activity at 10 µM amounted to 110%.
Consider `CCSc1ccc(-c2nc3cnccc3[nH]2)c(OC)c1` [Example 41, 2-(2-methoxy-4-ethylmercaptophenyl)imidazo[4,5-c]pyridine hydrochloride], for which the activity at 100 µM worked out at 196% and the activity at 10 µM is 136%.
Consider `COc1cc(Br)ccc1-c1nc2cnccc2[nH]1` [Example 57, 2-(2-methoxy-4-bromophenyl)imidazo[4,5-c]pyridine hydrochloride], for which the activity at 100 µM amounted to 175% and the activity at 10 µM stood at 134%.
Regarding `COc1cc(OC)c(-c2nc3cnccc3[nH]2)cc1OC` [Example 40, 2-(2,4,5-trimethoxyphenyl)imidazo[4,5-c]pyridine hydrochloride], the activity at 100 µM came to 129% and the activity at 10 µM stood at 108%.
For `COc1ccc(-c2nc3cnccc3[nH]2)c(OCCCSC)c1` [Example 44, 2-[2-(γ-methylmercaptopropoxy)-4-methoxyphenyl]imidazo[4,5-c]pyridine], the activity at 100 µM came out at 129% and the activity at 10 µM was determined as 118%.
Taken in the same sequence, the figures for `O=[N+]([O-])c1cccc(-c2nc3cnccc3[nH]2)c1` [Example 12, 2-(3-nitrophenyl)imidazo[4,5-c]pyridine hydrochloride] were 105% and 102%.
The matching figures for `COc1cc(Cl)ccc1-c1nc2cnccc2[nH]1` [Example 20, 2-(4-chloro-2-methoxyphenyl)imidazo[4,5-c]pyridine hydrochloride]: 146% and 147%.
The matching figures for `COc1cc(OC)c(-c2nc3cnccc3[nH]2)c(OC)c1` [Example 34, 2-(2,4,6-trimethoxyphenyl)imidazo[4,5-c]pyridine]: 137% and 103%.
For the compound `COc1ccc(-c2nc3cnccc3[nH]2)c(OC)c1OC` [Example 22, 2-(2,3,4-trimethoxyphenyl)imidazo[4,5-c]pyridine hydrochloride], the activity at 100 µM was determined as 221% and the activity at 10 µM came to 117%.
The matching figures for `CCOc1cc(OC)ccc1-c1nc2cnccc2[nH]1` [Example 28, 2-(2-ethoxy-4-methoxyphenyl)imidazo[4,5-c]pyridine]: 130% and 108%.
The matching figures for `COc1cccc(-c2nc3cnccc3[nH]2)c1` [Example 16, 2-(3-methoxyphenyl)imidazo[4,5-c]pyridine hydrochloride]: 213% and 114%.
The matching figures for `COc1cc(-c2nc3cnccc3[nH]2)cc(OC)c1OC` [Example 10, 2-(3,4,5-trimethoxyphenyl)imidazo[4,5-c]pyridine hydrochloride]: 150% and 109%.
Turning to `COc1ccc(-c2nc3cnccc3[nH]2)c(OCCSc2ccccc2)c1` [Example 38, 2-[2-(β-phenylmercaptoethoxy)-4-methoxyphenyl]imidazo[4,5-c]pyridine], the activity at 100 µM is 109% and the activity at 10 µM stood at 103%.
For the compound `CCCCOc1cc(OC)ccc1-c1nc2cnccc2[nH]1` [Example 30, 2-(2-n-butoxy-4-methoxyphenyl)imidazo[4,5-c]pyridine], the activity at 100 µM came to 140% and the activity at 10 µM was 100%.
On to `COc1cc(OC)cc(-c2nc3cnccc3[nH]2)c1` [Example 32, 2-(3,5-dimethoxyphenyl)imidazo[4,5-c]pyridine], for which the activity at 100 µM worked out at 179% and the activity at 10 µM was 115%.
Consider `Clc1ccc(-c2nc3cnccc3[nH]2)cc1` [Example 49, 2-(4-chlorophenyl)imidazo[4,5-c]pyridine], for which the activity at 100 µM worked out at 175% and the activity at 10 µM came out at 107%.
